Experiments:
Assay in all cases: KINOMEscan kinase profiling
Type in all cases: binding
[1] = molecular target: T1, ABL2 (Homo sapiens, UniProt P42684); conditions: read-out: %Inhibition by 10 μM SPA70
T1 construct: purchased DiscoverX (Ambit Biosciences) KINOMEscan
Outline: (§1)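 KINOMEscan profiling followed a published protocol. Kinases whose inhibition exceeded a set cut-off were then tested in a dilution series beginning at 30 µM.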

[2] = molecular target: T2, ARK5 (Homo sapiens, UniProt O60285)
T2 construct: purchased DiscoverX (Ambit Biosciences) KINOMEscan
T2 sequence (O60285 whole entry): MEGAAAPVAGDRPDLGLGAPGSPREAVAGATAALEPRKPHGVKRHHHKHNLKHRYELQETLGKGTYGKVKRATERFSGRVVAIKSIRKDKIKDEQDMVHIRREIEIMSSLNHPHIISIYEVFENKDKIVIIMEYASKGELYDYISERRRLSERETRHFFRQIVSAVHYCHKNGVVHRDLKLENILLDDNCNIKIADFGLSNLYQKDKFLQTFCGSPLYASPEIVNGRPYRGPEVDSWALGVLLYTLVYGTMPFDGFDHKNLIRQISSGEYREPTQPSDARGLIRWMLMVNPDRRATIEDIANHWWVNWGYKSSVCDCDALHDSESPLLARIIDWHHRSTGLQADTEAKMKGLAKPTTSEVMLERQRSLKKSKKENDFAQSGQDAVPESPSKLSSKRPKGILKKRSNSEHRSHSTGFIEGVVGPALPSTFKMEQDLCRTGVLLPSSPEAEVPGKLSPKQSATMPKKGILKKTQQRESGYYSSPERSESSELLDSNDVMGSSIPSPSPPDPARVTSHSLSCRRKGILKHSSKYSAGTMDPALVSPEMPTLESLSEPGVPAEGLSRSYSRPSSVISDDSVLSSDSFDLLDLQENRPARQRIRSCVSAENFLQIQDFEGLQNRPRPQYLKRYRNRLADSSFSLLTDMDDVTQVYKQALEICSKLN
Outline: as §1

[3] = molecular target: T3, ASK1 (Homo sapiens, UniProt Q99683); conditions: read-out: %Inhibition by 10 μM SPA70
T3 construct: purchased DiscoverX (Ambit Biosciences) KINOMEscan
Outline: as §1

[4] = molecular target: T4, AURKC (Homo sapiens, UniProt Q9UQB9); conditions: read-out: %Inhibition by 10 μM SPA70
T4 construct: purchased DiscoverX (Ambit Biosciences) KINOMEscan
T4 sequence (Q9UQB9 whole entry): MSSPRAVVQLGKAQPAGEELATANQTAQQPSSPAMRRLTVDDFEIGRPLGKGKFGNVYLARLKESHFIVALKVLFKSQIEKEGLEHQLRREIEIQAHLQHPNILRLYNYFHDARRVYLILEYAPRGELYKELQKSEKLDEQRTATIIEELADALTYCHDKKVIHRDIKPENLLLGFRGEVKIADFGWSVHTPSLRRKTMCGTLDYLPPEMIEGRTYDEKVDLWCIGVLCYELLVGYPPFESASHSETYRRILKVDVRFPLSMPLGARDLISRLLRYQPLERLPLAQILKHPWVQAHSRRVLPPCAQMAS
Outline: as §1

[5] = molecular target: T5, BMPR1A (Homo sapiens, UniProt P36894); conditions: read-out: %Inhibition by 10 μM SPA70
T5 construct: purchased DiscoverX (Ambit Biosciences) KINOMEscan
Outline: as §1

[6] = molecular target: T6, BRSK1 (Homo sapiens, UniProt Q8TDC3); conditions: read-out: %Inhibition by 10 μM SPA70
T6 construct: purchased DiscoverX (Ambit Biosciences) KINOMEscan
Outline: as §1

[7] = molecular target: T7, BRSK2 (Homo sapiens, UniProt Q8IWQ3); conditions: read-out: %Inhibition by 10 μM SPA70
T7 construct: purchased DiscoverX (Ambit Biosciences) KINOMEscan
Outline: as §1

[8] = molecular target: T8, CAMK4 (Homo sapiens, UniProt Q16566); conditions: read-out: %Inhibition by 10 μM SPA70
T8 construct: purchased DiscoverX (Ambit Biosciences) KINOMEscan
Outline: as §1

[9] = molecular target: T9, CSF1R (Homo sapiens, UniProt P07333)
T9 construct: purchased Ambit Biosciences, now part of DiscoveryX
T9 sequence (P07333 20-972): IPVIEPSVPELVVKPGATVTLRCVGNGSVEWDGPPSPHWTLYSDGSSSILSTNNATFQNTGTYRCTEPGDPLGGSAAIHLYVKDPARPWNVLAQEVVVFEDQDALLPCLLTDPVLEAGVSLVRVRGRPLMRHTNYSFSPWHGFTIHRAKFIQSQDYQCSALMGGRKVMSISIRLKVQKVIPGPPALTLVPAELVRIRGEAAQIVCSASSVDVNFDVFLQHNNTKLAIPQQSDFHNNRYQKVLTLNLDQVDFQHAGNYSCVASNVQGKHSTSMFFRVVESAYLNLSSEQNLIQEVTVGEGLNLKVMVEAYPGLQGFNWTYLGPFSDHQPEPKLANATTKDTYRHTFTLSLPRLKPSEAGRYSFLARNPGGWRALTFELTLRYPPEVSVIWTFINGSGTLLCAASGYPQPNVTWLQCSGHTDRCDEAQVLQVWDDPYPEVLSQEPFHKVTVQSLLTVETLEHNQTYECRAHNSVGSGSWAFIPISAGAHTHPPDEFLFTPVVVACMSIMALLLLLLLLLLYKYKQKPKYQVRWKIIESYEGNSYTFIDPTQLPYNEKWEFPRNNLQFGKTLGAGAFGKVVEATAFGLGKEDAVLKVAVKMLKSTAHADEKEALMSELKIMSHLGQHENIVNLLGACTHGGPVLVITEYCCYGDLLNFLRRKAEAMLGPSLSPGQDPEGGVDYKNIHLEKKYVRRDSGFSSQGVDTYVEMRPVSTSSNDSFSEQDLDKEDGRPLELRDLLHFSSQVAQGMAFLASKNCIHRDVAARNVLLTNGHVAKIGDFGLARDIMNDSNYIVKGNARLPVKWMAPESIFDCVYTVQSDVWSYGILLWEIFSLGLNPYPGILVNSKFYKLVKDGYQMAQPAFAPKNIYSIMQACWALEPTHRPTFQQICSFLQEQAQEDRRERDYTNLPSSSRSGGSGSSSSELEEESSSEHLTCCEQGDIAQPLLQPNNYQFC
Outline: as §1

[10] = molecular target: T10, DLK (Homo sapiens, UniProt Q12852)
T10 construct: purchased DiscoverX (Ambit Biosciences) KINOMEscan
Outline: as §1

[11] = molecular target: T11, DRAK2 (Homo sapiens, UniProt O94768); conditions: read-out: %Inhibition by 10 μM SPA70
T11 construct: purchased DiscoverX (Ambit Biosciences) KINOMEscan
Outline: as §1

[12] = molecular target: T12, EPHB3 (Homo sapiens, UniProt P54753); conditions: read-out: %Inhibition by 10 μM SPA70
T12 construct: purchased DiscoverX (Ambit Biosciences) KINOMEscan
Outline: as §1

[13] = molecular target: T13, ERBB2 (Homo sapiens, UniProt P04626); conditions: read-out: %Inhibition by 10 μM SPA70
T13 construct: purchased DiscoverX (Ambit Biosciences) KINOMEscan
Outline: as §1

[14] = molecular target: T14, GRK7 (Homo sapiens, UniProt Q8WTQ7); conditions: read-out: %Inhibition by 10 μM SPA70
T14 construct: purchased DiscoverX (Ambit Biosciences) KINOMEscan
T14 sequence (Q8WTQ7 whole entry): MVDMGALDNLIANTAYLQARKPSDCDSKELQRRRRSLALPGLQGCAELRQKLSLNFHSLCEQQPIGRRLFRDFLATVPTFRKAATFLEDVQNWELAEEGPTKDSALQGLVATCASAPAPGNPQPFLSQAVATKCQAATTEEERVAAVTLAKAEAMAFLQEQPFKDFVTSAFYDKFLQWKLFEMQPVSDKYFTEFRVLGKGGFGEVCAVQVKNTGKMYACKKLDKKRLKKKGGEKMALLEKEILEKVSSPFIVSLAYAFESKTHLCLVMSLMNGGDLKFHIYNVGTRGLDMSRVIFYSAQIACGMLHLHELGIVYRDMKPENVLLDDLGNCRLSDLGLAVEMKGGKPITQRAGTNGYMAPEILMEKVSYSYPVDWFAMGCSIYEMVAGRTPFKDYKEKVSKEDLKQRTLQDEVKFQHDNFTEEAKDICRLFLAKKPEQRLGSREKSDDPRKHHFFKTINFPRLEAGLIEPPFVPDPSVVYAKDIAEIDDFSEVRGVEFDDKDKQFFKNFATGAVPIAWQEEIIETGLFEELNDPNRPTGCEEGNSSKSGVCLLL
Outline: as §1

[15] = molecular target: T15, GSK3B (Homo sapiens, UniProt P49841)
T15 construct: purchased DiscoverX (Ambit Biosciences) KINOMEscan
T15 sequence (P49841 whole entry): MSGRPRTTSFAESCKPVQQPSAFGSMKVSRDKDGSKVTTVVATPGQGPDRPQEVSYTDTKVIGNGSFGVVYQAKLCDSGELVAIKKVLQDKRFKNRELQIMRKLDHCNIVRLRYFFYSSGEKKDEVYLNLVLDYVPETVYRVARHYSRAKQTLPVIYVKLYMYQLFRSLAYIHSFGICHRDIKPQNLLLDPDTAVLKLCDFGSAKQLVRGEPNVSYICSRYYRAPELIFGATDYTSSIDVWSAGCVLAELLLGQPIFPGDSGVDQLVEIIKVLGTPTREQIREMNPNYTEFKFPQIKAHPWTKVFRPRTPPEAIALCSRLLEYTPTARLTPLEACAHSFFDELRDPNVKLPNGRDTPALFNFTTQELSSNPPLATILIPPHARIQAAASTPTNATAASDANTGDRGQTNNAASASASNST
Outline: as §1

[16] = molecular target: T16, IKK-beta (Homo sapiens, UniProt O14920); conditions: read-out: %Inhibition by 10 μM SPA70
T16 construct: purchased DiscoverX (Ambit Biosciences) KINOMEscan
Outline: as §1

[17] = molecular target: T17, JAK3(JH1domain-catalytic) (Homo sapiens, UniProt P52333); conditions: read-out: %Inhibition by 10 μM SPA70
T17 construct: JAK3(JH1domain-catalytic); purchased DiscoverX (Ambit Biosciences) KINOMEscan
Outline: as §1

[18] = molecular target: T18, KIT (Homo sapiens, UniProt P10721)
T18 construct: purchased Ambit Biosciences, now part of DiscoveryX
T18 sequence (P10721 26-976): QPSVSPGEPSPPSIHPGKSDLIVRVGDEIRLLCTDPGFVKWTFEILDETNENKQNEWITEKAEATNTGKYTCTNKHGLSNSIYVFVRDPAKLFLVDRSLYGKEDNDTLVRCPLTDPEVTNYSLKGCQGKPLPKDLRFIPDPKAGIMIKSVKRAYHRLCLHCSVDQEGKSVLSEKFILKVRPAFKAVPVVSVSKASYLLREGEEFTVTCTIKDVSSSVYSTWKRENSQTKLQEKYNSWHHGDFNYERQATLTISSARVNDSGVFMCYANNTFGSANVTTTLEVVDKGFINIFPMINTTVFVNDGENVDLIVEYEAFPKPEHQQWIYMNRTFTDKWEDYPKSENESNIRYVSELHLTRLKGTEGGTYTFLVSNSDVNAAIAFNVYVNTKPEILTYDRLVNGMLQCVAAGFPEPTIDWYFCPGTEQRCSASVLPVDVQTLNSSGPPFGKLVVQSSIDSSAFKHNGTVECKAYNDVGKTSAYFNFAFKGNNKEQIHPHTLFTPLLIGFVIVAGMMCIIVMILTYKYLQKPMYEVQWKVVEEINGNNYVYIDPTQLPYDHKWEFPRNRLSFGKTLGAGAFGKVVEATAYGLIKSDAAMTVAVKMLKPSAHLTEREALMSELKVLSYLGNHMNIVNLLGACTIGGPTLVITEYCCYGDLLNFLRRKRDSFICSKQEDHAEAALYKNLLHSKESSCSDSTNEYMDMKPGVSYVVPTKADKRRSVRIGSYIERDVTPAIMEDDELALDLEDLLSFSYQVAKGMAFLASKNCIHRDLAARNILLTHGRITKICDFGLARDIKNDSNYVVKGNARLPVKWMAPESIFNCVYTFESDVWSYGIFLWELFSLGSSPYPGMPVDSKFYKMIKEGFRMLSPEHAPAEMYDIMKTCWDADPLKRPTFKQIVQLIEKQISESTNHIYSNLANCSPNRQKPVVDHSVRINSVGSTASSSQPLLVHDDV
Outline: as §1

[19] = molecular target: T19, LTK (Homo sapiens, UniProt P29376); conditions: read-out: %Inhibition by 10 μM SPA70
T19 construct: purchased DiscoverX (Ambit Biosciences) KINOMEscan
Outline: as §1

[20] = molecular target: T20, LYN (Homo sapiens, UniProt P07948); conditions: read-out: %Inhibition by 10 μM SPA70
T20 construct: purchased DiscoverX (Ambit Biosciences) KINOMEscan
Outline: as §1

[21] = molecular target: T21, MEK5 (Homo sapiens, UniProt Q13163); conditions: read-out: %Inhibition by 10 μM SPA70
T21 construct: purchased DiscoverX (Ambit Biosciences) KINOMEscan
Outline: as §1

[22] = molecular target: T22, MEK6 (Homo sapiens, UniProt P52564); conditions: read-out: %Inhibition by 10 μM SPA70
T22 construct: purchased DiscoverX (Ambit Biosciences) KINOMEscan
Outline: as §1

[23] = molecular target: T23, MLK2 (Homo sapiens, UniProt Q02779); conditions: read-out: %Inhibition by 10 μM SPA70
T23 construct: purchased DiscoverX (Ambit Biosciences) KINOMEscan
Outline: as §1

[24] = molecular target: T24, MRCKB (Homo sapiens, UniProt Q9Y5S2); conditions: read-out: %Inhibition by 10 μM SPA70
T24 construct: purchased DiscoverX (Ambit Biosciences) KINOMEscan
Outline: as §1

[25] = molecular target: T25, NEK2 (Homo sapiens, UniProt P51955); conditions: read-out: %Inhibition by 10 μM SPA70
T25 construct: purchased DiscoverX (Ambit Biosciences) KINOMEscan
Outline: as §1

[26] = molecular target: T26, PAK4 (Homo sapiens, UniProt O96013); conditions: read-out: %Inhibition by 10 μM SPA70
T26 construct: purchased DiscoverX (Ambit Biosciences) KINOMEscan
Outline: as §1

[27] = molecular target: T27, PLK1 (Homo sapiens, UniProt P53350); conditions: read-out: %Inhibition by 10 μM SPA70
T27 construct: purchased DiscoverX (Ambit Biosciences) KINOMEscan
Outline: as §1

[28] = molecular target: T28, PRP4 (Homo sapiens, UniProt Q13523); conditions: read-out: %Inhibition by 10 μM SPA70
T28 construct: purchased DiscoverX (Ambit Biosciences) KINOMEscan
Outline: as §1

[29] = molecular target: T29, RET (Homo sapiens, UniProt P07949); conditions: read-out: %Inhibition by 10 μM SPA70
T29 construct: purchased DiscoverX (Ambit Biosciences) KINOMEscan
Outline: as §1

[30] = molecular target: T30, RIPK4 (Homo sapiens, UniProt P57078); conditions: read-out: %Inhibition by 10 μM SPA70
T30 construct: purchased DiscoverX (Ambit Biosciences) KINOMEscan
T30 sequence (P57078 whole entry): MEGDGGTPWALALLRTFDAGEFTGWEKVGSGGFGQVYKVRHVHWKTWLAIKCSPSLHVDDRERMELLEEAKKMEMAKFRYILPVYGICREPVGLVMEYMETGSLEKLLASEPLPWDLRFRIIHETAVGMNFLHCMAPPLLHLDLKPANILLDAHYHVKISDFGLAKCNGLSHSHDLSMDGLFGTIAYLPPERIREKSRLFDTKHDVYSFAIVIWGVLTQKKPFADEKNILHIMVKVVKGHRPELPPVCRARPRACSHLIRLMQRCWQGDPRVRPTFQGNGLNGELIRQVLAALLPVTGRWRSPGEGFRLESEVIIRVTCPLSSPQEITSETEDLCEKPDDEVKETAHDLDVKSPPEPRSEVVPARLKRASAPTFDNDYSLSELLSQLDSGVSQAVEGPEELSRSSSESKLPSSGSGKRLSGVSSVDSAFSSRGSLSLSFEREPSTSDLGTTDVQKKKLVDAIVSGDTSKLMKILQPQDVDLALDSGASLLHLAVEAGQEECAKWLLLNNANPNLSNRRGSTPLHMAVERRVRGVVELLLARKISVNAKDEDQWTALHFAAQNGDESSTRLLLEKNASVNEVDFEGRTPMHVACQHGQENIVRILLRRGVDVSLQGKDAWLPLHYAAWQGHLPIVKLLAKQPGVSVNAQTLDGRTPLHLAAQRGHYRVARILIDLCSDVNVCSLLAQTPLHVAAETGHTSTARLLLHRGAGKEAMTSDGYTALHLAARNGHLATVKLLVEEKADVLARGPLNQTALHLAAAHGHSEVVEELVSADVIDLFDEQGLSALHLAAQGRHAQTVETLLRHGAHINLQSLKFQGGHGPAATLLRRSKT
Outline: as §1

[31] = molecular target: T31, RIPK5 (Homo sapiens, UniProt Q6XUX3); conditions: read-out: %Inhibition by 10 μM SPA70
T31 construct: purchased DiscoverX (Ambit Biosciences) KINOMEscan
Outline: as §1

[32] = molecular target: T32, ROCK2 (Homo sapiens, UniProt O75116); conditions: read-out: %Inhibition by 10 μM SPA70
T32 construct: purchased DiscoverX (Ambit Biosciences) KINOMEscan
Outline: as §1

[33] = molecular target: T33, SIK (Homo sapiens, UniProt P57059)
T33 construct: purchased DiscoverX (Ambit Biosciences) KINOMEscan
Outline: as §1

[34] = molecular target: T34, SIK2 (Homo sapiens, UniProt Q9H0K1); conditions: read-out: %Inhibition by 10 μM SPA70
T34 construct: purchased DiscoverX (Ambit Biosciences) KINOMEscan
Outline: as §1

[35] = molecular target: T35, TAOK3 (Homo sapiens, UniProt Q9H2K8); conditions: read-out: %Inhibition by 10 μM SPA70
T35 construct: purchased DiscoverX (Ambit Biosciences) KINOMEscan
Outline: as §1

[36] = molecular target: T36, TIE2 (Homo sapiens, UniProt Q02763); conditions: read-out: %Inhibition by 10 μM SPA70
T36 construct: purchased DiscoverX (Ambit Biosciences) KINOMEscan
Outline: as §1

[37] = molecular target: T37, TNNI3K (Homo sapiens, UniProt Q59H18); conditions: read-out: %Inhibition by 10 μM SPA70
T37 construct: purchased DiscoverX (Ambit Biosciences) KINOMEscan
Outline: as §1

[38] = molecular target: T38, TRPM6 (Homo sapiens, UniProt Q9BX84); conditions: read-out: %Inhibition by 10 μM SPA70
T38 construct: purchased DiscoverX (Ambit Biosciences) KINOMEscan
Outline: as §1

[39] = molecular target: T39, p38-alpha (Homo sapiens, UniProt Q16539)
T39 construct: purchased DiscoverX (Ambit Biosciences) KINOMEscan
Outline: as §1

[40] = molecular target: T40, p38-delta (Homo sapiens, UniProt O15264); conditions: read-out: %Inhibition by 10 μM SPA70
T40 construct: purchased DiscoverX (Ambit Biosciences) KINOMEscan
T40 sequence (O15264 whole entry): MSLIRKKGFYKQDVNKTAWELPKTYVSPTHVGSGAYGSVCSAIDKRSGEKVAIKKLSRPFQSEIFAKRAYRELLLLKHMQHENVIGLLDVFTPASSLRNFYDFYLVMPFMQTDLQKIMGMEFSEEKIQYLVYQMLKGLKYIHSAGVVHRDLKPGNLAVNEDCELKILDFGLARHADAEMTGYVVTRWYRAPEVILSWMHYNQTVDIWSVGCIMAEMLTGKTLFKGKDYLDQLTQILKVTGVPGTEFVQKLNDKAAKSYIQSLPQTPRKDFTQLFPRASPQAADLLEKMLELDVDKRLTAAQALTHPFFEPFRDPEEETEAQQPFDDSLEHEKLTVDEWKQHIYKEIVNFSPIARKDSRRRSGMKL
Outline: as §1

[41] = molecular target: T41, p38-gamma (Homo sapiens, UniProt P53778); conditions: read-out: %Inhibition by 10 μM SPA70
T41 construct: purchased DiscoverX (Ambit Biosciences) KINOMEscan
Outline: as §1

[42] = 11-point 3-fold serial dilutions starting from 30 µM
[43] = read-out: %Inhibition by 10 μM SPA70

SMILES: COc1ccc(OC)c(-n2nnc(S(=O)(=O)c3ccc(C(C)(C)C)cc3)c2C)c1 [SPA70]
- inhibition at 10 µM [1]: 0%
- %Inhibition by 10 μM SPA70 [2]: 41%
- inhibition at 10 µM [3]: 4%
- inhibition at 10 µM [4]: 2%
- inhibition at 10 µM [5]: 2%
- inhibition at 10 µM [6]: 8%
- inhibition at 10 µM [7]: 0%
- inhibition at 10 µM [8]: 0%
- Kd [9, 42]: 4 µM
- inhibition at 10 µM [9, 43]: 63%
- %Inhibition by 10 μM SPA70 [10]: 4%
- inhibition at 10 µM [11]: 5%
- inhibition at 10 µM [12]: 0%
- inhibition at 10 µM [13]: 5%
- inhibition at 10 µM [14]: 0%
- %Inhibition by 10 μM SPA70 [15]: not inhibited
- inhibition at 10 µM [15, 43]: 0%
- inhibition at 10 µM [16]: 26%
- inhibition at 10 µM [17]: 5%
- Kd [18, 42]: 2.5 µM
- inhibition at 10 µM [18, 43]: 83%
- inhibition at 10 µM [19]: 6%
- inhibition at 10 µM [20]: 0%
- inhibition at 10 µM [21]: 8%
- inhibition at 10 µM [22]: 0%
- inhibition at 10 µM [23]: 0%
- inhibition at 10 µM [24]: 0%
- inhibition at 10 µM [25]: 4%
- inhibition at 10 µM [26]: 0%
- inhibition at 10 µM [27]: 0%
- inhibition at 10 µM [28]: 0%
- inhibition at 10 µM [29]: 0%
- inhibition at 10 µM [30]: 0%
- inhibition at 10 µM [31]: 24%
- inhibition at 10 µM [32]: 13%
- %Inhibition by 10 μM SPA70 [33]: 0%
- inhibition at 10 µM [34]: 0%
- inhibition at 10 µM [35]: 2%
- inhibition at 10 µM [36]: 0%
- inhibition at 10 µM [37]: 0%
- inhibition at 10 µM [38]: 31%
- %Inhibition by 10 μM SPA70 [39]: 0%
- inhibition at 10 µM [40]: 21%
- inhibition at 10 µM [41]: 8%
